Test results reported in BindingDB's records for doi:10.1021/cc100076k (Universidade Federal De SaO Carlo, 2010).

These molecules were tested against T1, Cathepsin L2 (Homo sapiens, UniProt O60911) (assay: Inhibition Activity Assay). Conditions: pH 5.5; 27 °C.
T1 sequence (O60911 whole entry): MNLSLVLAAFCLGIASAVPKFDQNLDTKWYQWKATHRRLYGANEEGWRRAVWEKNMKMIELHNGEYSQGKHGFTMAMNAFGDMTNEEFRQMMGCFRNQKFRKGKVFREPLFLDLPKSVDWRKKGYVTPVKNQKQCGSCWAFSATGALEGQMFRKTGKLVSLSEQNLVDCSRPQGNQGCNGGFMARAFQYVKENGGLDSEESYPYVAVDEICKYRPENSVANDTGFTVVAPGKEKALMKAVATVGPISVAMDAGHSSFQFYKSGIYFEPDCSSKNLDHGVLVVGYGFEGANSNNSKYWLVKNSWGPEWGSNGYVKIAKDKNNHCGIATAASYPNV
From the text: Recombinant human cathepsin V was expressed and purified as described previously.
`O=c1cc(-c2ccc(-c3ccccc3)cc2)oc2ccc(F)cc12` [Flavonid, 6[3,6]] was tested, and the IC50 was 2.9 µM.
Molecule `COc1cc(OC)c2c(=O)cc(-c3ccc(OC)c(OC)c3OC)oc2c1` [Flavonid, 6[2,3]] has an IC50 greater than 50 µM.
In the case of `COc1ccc(-c2cc(=O)c3c(OC)cc(OC)cc3o2)c(OC)c1` [Flavonid, 6[2,2]], the IC50 is reported as 19 µM.
Molecule `COc1ccc(-c2cc(=O)c3cc(OC)ccc3o2)cc1` [6-methoxy-2-(4-methoxyphenyl)-1-benzopyran-4-one] has an IC50 of 12 µM.
`COc1ccc(-c2cc(=O)c3cc(F)ccc3o2)cc1` [Flavonid, 6[3,1]] showed an IC50 of 0.8 µM.
`COc1ccc(-c2cc(=O)c3cc(F)ccc3o2)c(OC)c1` [Flavonid, 6[3,2]] showed an IC50 of 1.6 µM.
Molecule `COc1cccc(Cl)c1-c1cc(=O)c2ccc(F)cc2o1` [Flavonid, 6b] has an IC50 greater than 50 µM.
With `COc1ccc2oc(-c3ccc(-c4ccccc4)cc3)cc(=O)c2c1` [Flavonid, 6[4,6]] the IC50 was 19.2 µM.
`COc1ccc2oc(-c3ccc(OC)c(OC)c3OC)cc(=O)c2c1` [Flavonid, 6[4,3]] gave an IC50 greater than 50 µM.
For `COc1ccc(C(=O)/C=C/c2ccc(OC)cc2OC)c(O)c1` [Flavonid, 5a], the IC50 was greater than 50 µM.
`COc1ccc(-c2cc(=O)c3cc(OC)ccc3o2)c(OC)c1` [Flavonid, 6[4,2]] gave an IC50 greater than 50 µM.
`O=c1cc(-c2c(F)cccc2Cl)oc2cc(F)ccc12` [Flavonid, 6e] gave an IC50 greater than 50 µM.
Work on `COc1ccc(-c2cc(=O)c3cc(Br)ccc3o2)c(OC)c1` [Flavonid, 6d] yielded an IC50 of 1.2 µM.
Work on `COc1ccc(-c2cc(=O)c3cc(F)ccc3o2)c(OC)c1OC` [Flavonid, 6[3,3]] yielded an IC50 of 4.1 µM.
`COc1cc(OC)c2c(=O)cc(-c3ccc(-c4ccccc4)cc3)oc2c1` [Flavonid, 6[2,6]] showed an IC50 greater than 50 µM.
`COc1cccc(Cl)c1/C=C/C(=O)c1ccc(F)cc1O` [Flavonid, 5b] gave an IC50 greater than 50 µM.
